Test system: Jurkat T cells
Assay: mRNA sequencing of activated Jurkat T cells
Assay type: cell-based, human

## C=CC[C@@H]1/C=C(\C)C[C@H](C)C[C@H](OC)[C@H]2O[C@@](O)(C(=O)C(=O)N3CCCC[C@H]3C(=O)O[C@H](/C(C)=C/[C@@H]3CC[C@@H](O)[C@H](OC)C3)[C@H](C)[C@@H](O)CC1=O)[C@H](C)C[C@@H]2OC [FK506, Tacrolimus, reference compound]
P + I
  CRIM1 FPKM: 0.305 FPKM
  CRTAM FPKM: 3.325 FPKM
  CSF1 FPKM: 1.706 FPKM
  CSF2 FPKM: 0 FPKM
  CST7 FPKM: 2.338 FPKM
  CXCL8 FPKM: 0.937 FPKM
  CXCR3 FPKM: 0.503 FPKM
  DSTYK FPKM: 3.501 FPKM
  FBXO34 FPKM: 14.612 FPKM
  FMNL2 FPKM: 2.726 FPKM
  FOSL2 FPKM: 2.204 FPKM
  FOXO1 FPKM: 1.77 FPKM
  FXYD5 FPKM: 41.346 FPKM
  FYN FPKM: 16.523 FPKM
  GFOD1 FPKM: 4.187 FPKM
  GRK5 FPKM: 8.481 FPKM
  GTDC1 FPKM: 4.629 FPKM
  IL2 FPKM: 0.287 FPKM
  IL3 FPKM: 0.062 FPKM
  IL21R FPKM: 2.244 FPKM
  IL21R-AS1 FPKM: 1.927 FPKM
  IQCJ-SCHIP1 FPKM: 1.657 FPKM
  IRF4 FPKM: 0.423 FPKM
  IRF8 FPKM: 1.19 FPKM
  ISM1 FPKM: 0.726 FPKM
  JAK2 FPKM: 5.248 FPKM
  KCNK1 FPKM: 10.967 FPKM
  KCNK5 FPKM: 3.906 FPKM
  LAMP3 FPKM: 6.412 FPKM
  LAX1 FPKM: 8.052 FPKM
  LIF FPKM: 0.143 FPKM
  LOC729603 FPKM: 2.179 FPKM
  LRRC8B FPKM: 3.555 FPKM
  LTBP4 FPKM: 8.427 FPKM
  MAP2K3 FPKM: 41.815 FPKM
  MIR6775 FPKM: 19.643 FPKM
  MIR6821 FPKM: 13.626 FPKM
  MYO1D FPKM: 4.59 FPKM
  NDFIP1 FPKM: 22.485 FPKM
  NFATC1 FPKM: 3.793 FPKM
  NPDC1 FPKM: 4.328 FPKM
  NR4A2 FPKM: 0.04 FPKM
  NTRK1 FPKM: 0.836 FPKM
  PAM FPKM: 1.483 FPKM
  PDGFA FPKM: 3.25 FPKM
  PELI1 FPKM: 8.175 FPKM
  PHACTR2 FPKM: 2.927 FPKM
  PHEX FPKM: 0.213 FPKM
  PIM3 FPKM: 42.827 FPKM
  PKIA FPKM: 13.962 FPKM
  PLK3 FPKM: 5.257 FPKM
  PLS3 FPKM: 0.052 FPKM
  POU2AF1 FPKM: 2.274 FPKM
  PPIF FPKM: 50.291 FPKM
  PTPN6 FPKM: 20.906 FPKM
  PTPN22 FPKM: 6.37 FPKM
  RDH10 FPKM: 5.856 FPKM
  REL FPKM: 4.749 FPKM
  RGS16 FPKM: 1.172 FPKM
  SCHIP1 FPKM: 1.535 FPKM
  SERPINB2 FPKM: 2.905 FPKM
  SHC4 FPKM: 0.663 FPKM
  SLAMF1 FPKM: 0.217 FPKM
  SLC35E4 FPKM: 0.952 FPKM
  SORBS1 FPKM: 0.4 FPKM
  SPRY1 FPKM: 4.074 FPKM
  STAT5A FPKM: 3.347 FPKM
  TAGAP FPKM: 4.352 FPKM
  TBC1D4 FPKM: 12.549 FPKM
  TBC1D20 FPKM: 17.7 FPKM
  TDRD9 FPKM: 1.245 FPKM
  TIAM2 FPKM: 0.27 FPKM
  TM4SF1 FPKM: 0.439 FPKM
  TNFRSF4 FPKM: 2.933 FPKM
  TNFSF9 FPKM: 2.568 FPKM
  TNFSF14 FPKM: 1.023 FPKM
  TNS3 FPKM: 0.678 FPKM
  VAMP1 FPKM: 14.793 FPKM
  XCL1 FPKM: 0 FPKM
  XCL2 FPKM: 0 FPKM
  ZNF704 FPKM: 0.014 FPKM
  ZNF827 FPKM: 1.521 FPKM
P+I
  ABCB10 FPKM: 10.164 FPKM
  ACTG1 FPKM: 1002.221 FPKM
  ADAM19 FPKM: 5.532 FPKM
  ADD3 FPKM: 13.6 FPKM
  ADORA2B FPKM: 8.219 FPKM
  AGO2 FPKM: 13.242 FPKM
  AIM1 FPKM: 37.047 FPKM
  APOBEC3A_B FPKM: 10.242 FPKM
  APOBEC3B FPKM: 41.16 FPKM
  APOBEC3C FPKM: 16.851 FPKM
  APOBEC3D FPKM: 10.187 FPKM
  APOL2 FPKM: 89.267 FPKM
  APOL6 FPKM: 46.937 FPKM
  AQP3 FPKM: 66.037 FPKM
  ARAP2 FPKM: 15.321 FPKM
  ARC FPKM: 9.966 FPKM
  ARHGAP23 FPKM: 2.576 FPKM
  ARHGEF6 FPKM: 35.366 FPKM
  ASAP1 FPKM: 7.765 FPKM
  ATG14 FPKM: 7.863 FPKM
  ATP2B4 FPKM: 16.449 FPKM
  ATXN1 FPKM: 1.798 FPKM
  BACH2 FPKM: 29.7 FPKM
  BAI2 FPKM: 1.395 FPKM
  BAIAP2-AS1 FPKM: 2.72 FPKM
  BATF3 FPKM: 36.514 FPKM
  BHLHE40 FPKM: 6.563 FPKM
  BTG1 FPKM: 22.099 FPKM
  C1QL1 FPKM: 1.444 FPKM
  C1orf233 FPKM: 0.79 FPKM
  C3 FPKM: 0.489 FPKM
  C9orf9 FPKM: 7.304 FPKM
  C10orf54 FPKM: 0.382 FPKM
  C16orf46 FPKM: 2.655 FPKM
  CASC15 FPKM: 4.027 FPKM
  CBX4 FPKM: 12.478 FPKM
  CBX6 FPKM: 42.006 FPKM
  CCDC64 FPKM: 10.044 FPKM
  CCDC71L FPKM: 13.763 FPKM
  CCL1 FPKM: 0 FPKM
  CCL3L1 FPKM: 0 FPKM
  CCL4 FPKM: 0 FPKM
  CCL4L1 FPKM: 0.087 FPKM
  CCL4L2 FPKM: 0.087 FPKM
  CCND2 FPKM: 0.558 FPKM
  CD1A FPKM: 4.589 FPKM
  CD1C FPKM: 3.288 FPKM
  CD1D FPKM: 2.553 FPKM
  CD27-AS1 FPKM: 5.11 FPKM
  CD27 FPKM: 3.098 FPKM
  CD55 FPKM: 6.015 FPKM
  CD69 FPKM: 125.597 FPKM
  CD83 FPKM: 35.907 FPKM
  CDCA7 FPKM: 26.911 FPKM
  CDT1 FPKM: 11.013 FPKM
  CFD FPKM: 0.937 FPKM
  CHI3L2 FPKM: 58.214 FPKM
  CHRNA9 FPKM: 4.046 FPKM
  CLEC2B FPKM: 60.911 FPKM
  CNR2 FPKM: 0.674 FPKM
  CORO2A FPKM: 1.862 FPKM
  CRIM1 FPKM: 0.305 FPKM
  CRTAM FPKM: 3.325 FPKM
  CSRNP1 FPKM: 26.052 FPKM
  CST7 FPKM: 2.338 FPKM
  CTDSPL FPKM: 1.758 FPKM
  CTTN FPKM: 11.037 FPKM
  CXCL3 FPKM: 3.147 FPKM
  CXCL9 FPKM: 0.839 FPKM
  CXCL10 FPKM: 0.352 FPKM
  CXCR3 FPKM: 0.503 FPKM
  CYB5RL FPKM: 1.807 FPKM
  DFNA5 FPKM: 12.016 FPKM
  DHFR FPKM: 7.656 FPKM
  DNAJB11 FPKM: 107.644 FPKM
  DNAJC1 FPKM: 13.765 FPKM
  DNPEP FPKM: 31.154 FPKM
  DOK2 FPKM: 27.372 FPKM
  DPY19L2P2 FPKM: 2.937 FPKM
  DPYSL2 FPKM: 11 FPKM
  DTX3L FPKM: 48.022 FPKM
  DUSP2 FPKM: 123.613 FPKM
  DUSP5 FPKM: 116.404 FPKM
  E2F1 FPKM: 7.783 FPKM
  E2F2 FPKM: 3.317 FPKM
  EIF2AK3 FPKM: 9.332 FPKM
  ENC1 FPKM: 9.299 FPKM
  ENHO FPKM: 1.746 FPKM
  ENPP1 FPKM: 124.248 FPKM
  EPAS1 FPKM: 5.846 FPKM
  EPHA3 FPKM: 2.019 FPKM
  ERO1LB FPKM: 5.101 FPKM
  ETV5 FPKM: 15.576 FPKM
  EVI2A FPKM: 15.078 FPKM
  FAM46C FPKM: 5.191 FPKM
  FAM111B FPKM: 5.291 FPKM
  FASLG FPKM: 1.518 FPKM
  FBXO34 FPKM: 14.612 FPKM
  FMNL2 FPKM: 2.726 FPKM
  FOS FPKM: 7.329 FPKM
  FOXO1 FPKM: 1.77 FPKM
  FST FPKM: 2.244 FPKM
  FURIN FPKM: 23.264 FPKM
  FYB FPKM: 11.107 FPKM
  GAMT FPKM: 10.915 FPKM
  GBP1 FPKM: 70.024 FPKM
  GBP2 FPKM: 27.591 FPKM
  GBP3 FPKM: 69.945 FPKM
  GBP4 FPKM: 4.384 FPKM
  GBP5 FPKM: 197.514 FPKM
  GDPD5 FPKM: 29.626 FPKM
  GEM FPKM: 2.495 FPKM
  GINS2 FPKM: 16.935 FPKM
  GLIPR2 FPKM: 15.84 FPKM
  GNAQ FPKM: 21.057 FPKM
  GNG2 FPKM: 25.67 FPKM
  GPR3 FPKM: 7.96 FPKM

— patent US20240376163A1, “PEPTIDE FOR INHIBITING CALCINEURIN AND USE THEREOF” (Seoul National University R&DB Foundation, priority 2023, published 2024)
